We go through two compounds from patent US20260021079A1, “NOX INHIBITORS FOR USE IN THE TREATMENT OF ALPORT SYNDROME” (CALLIDITAS THERAPEUTICS SUISSE SA, priority 2022, published 2026).

What all share (format): in vivo
Assay [1] has as its system homozygous Col4a3 ko/ko mice. As to the kind of experiment: Albumin levels in urine (Albumin Mouse ELISA) in Col4a3 Alport mouse model. Particulars: setanaxib 60 mg/kg daily oral gavage, Ramipril 10 mg/kg via drinking water; for Albumin levels in urine vs vehicle: age 6 weeks (2 weeks of treatment). An excerpt: Mice homozygous for the Col4a3 ko/ko targeted mutation are a model for autosomal-recessive Alport syndrome (Cosgrove et al. Kidney Int. 2007, 71(7), p. 615-618). Animals bred on a 129/SvJ background develop glomerulonephritis and die at about 8.5 weeks of age (Jackson Laboratory strain: #002908). Gross et al. Kidney Int. 2003, 63(2), p. 438-446) reported a mean survival of 10 weeks. Since homozygous Col4a3 ko/ko mice reflect key features of Alport syndrome, this mouse model is useful to test potential drug candidates. A number of 40 homozygous Col4a3 ko/ko mice, allocated to 4 groups (vehicle, setanaxib, Ramipril, and setanaxib+Ramipril combination) with n=10 animals each, were used for the study. Starting at an age of 4 weeks, animals were treated with vehicle and/or compound daily per oral gavage for 4 weeks. The reference compound Ramipril was administered via drinking water, prepared on a weekly basis, but changed at the latest after 4 days. Additionally, one wild-type control group (Col4A3+/+) without any treatment was enclosed in the study with n=6 animals. […] Albumin and Creatinine levels were evaluated by ELISA in urine samples of 8 animals per treatment group. Treatment 40 homozygous Col4a3 ko/ko mice, allocated to 4 groups with n=10 animals each, were used for this study. Animals were treated with vehicle or compound daily per oral gavage for 4 weeks starting at an age of 4 weeks. The reference compound Ramipril was administered via drinking water, prepared on a weekly basis, but changed latest after 4 days. Additionally, one wild-type control group without any treatment was enclosed in the study with n=6 animals. The treatment groups are outlined in the table below: […] In case no urine was produced during the fixation process, massage of the abdomen was allowed. Urine was collected in Eppendorf Tubes, spun at 800×g at room temperature for 10 minutes and supernatant was transferred into a fresh tube and frozen at -20° C. until use. Creatinine and Albumin levels in urine supernatants, collected from 8 animals each group […] timepoints, at baseline, 6 and 8 weeks of age (n=96), were analyzed. Albumin levels in urine supernatants, collected from each animal per group at 3 time points (total n=96) were analyzed using an Albumin Mouse ELISA Kit (ab108792; Abcam) according to manufacturer protocol. Briefly, urine samples were centrifuged at 800×g for 10 minutes and diluted into Diluent N. 50 μL of albumin standard or sample was added per well and incubated for 2 hours. After a washing step, 50 μL of biotinylated albumin antibody was added to each well and incubated for 1 hour. […] Albumin levels were determined by reading the absorbance at 450 nm immediately after adding the stop solution.
Background: In an ELISA, binding on a coated surface is turned into a signal by an enzyme label.

For assay [2], the system named is homozygous Col4a3 ko/ko mice. As to the kind of experiment: Albumin/creatinine ratio in urine in Col4a3 Alport mouse model. Particulars: Ramipril 10 mg/kg. An excerpt:
Mice homozygous for the Col4a3 ko/ko targeted mutation are a model for autosomal-recessive Alport syndrome (Cosgrove et al. Kidney Int. 2007, 71(7), p. 615-618). Animals bred on a 129/SvJ background develop glomerulonephritis and die at about 8.5 weeks of age (Jackson Laboratory strain: #002908). Gross et al. Kidney Int. 2003, 63(2), p. 438-446) reported a mean survival of 10 weeks. Since homozygous Col4a3 ko/ko mice reflect key features of Alport syndrome, this mouse model is useful to test potential drug candidates. A number of 40 homozygous Col4a3 ko/ko mice, allocated to 4 groups (vehicle, setanaxib, Ramipril, and setanaxib+Ramipril combination) with n=10 animals each, were used for the study. Starting at an age of 4 weeks, animals were treated with vehicle and/or compound daily per oral gavage for 4 weeks. The reference compound Ramipril was administered via drinking water, prepared on a weekly basis, but changed at the latest after 4 days. Additionally, one wild-type control group (Col4A3+/+) without any treatment was enclosed in the study with n=6 animals. […] Albumin and Creatinine levels were evaluated by ELISA in urine samples of 8 animals per treatment group. Treatment 40 homozygous Col4a3 ko/ko mice, allocated to 4 groups with n=10 animals each, were used for this study. Animals were treated with vehicle or compound daily per oral gavage for 4 weeks starting at an age of 4 weeks. The reference compound Ramipril was administered via drinking water, prepared on a weekly basis, but changed latest after 4 days. Additionally, one wild-type control group without any treatment was enclosed in the study with n=6 animals. The treatment groups are outlined in the table below: […] In case no urine was produced during the fixation process, massage of the abdomen was allowed. Urine was collected in Eppendorf Tubes, spun at 800×g at room temperature for 10 minutes and supernatant was transferred into a fresh tube and frozen at -20° C. until use. Creatinine and Albumin levels in urine supernatants, collected from 8 animals each group […] timepoints, at baseline, 6 and 8 weeks of age (n=96), were analyzed. Creatinine levels in urine samples of all animals (n=8 per group, 4 groups, 3 time points, total n=96) were analyzed. For that purpose, an enzymatic assay from Diazyme® (DZ072B) was used. The analysis was performed according to manufacturer protocol with minor modifications introduced for use in 96 well plates and readout in standard plate photometer (Cytation 5, Biotek). Albumin levels in urine supernatants, collected from each animal per group at 3 time points (total n=96) were analyzed using an Albumin Mouse ELISA Kit (ab108792; Abcam) according to manufacturer protocol.

Assay [3] concerns homozygous Col4a3 ko/ko mice. The experiment in a line: Blood Urea Nitrogen (BUN) colorimetric detection in plasma, Col4a3 Alport mouse model. Particulars: end of study (4 weeks of treatment); first experiment. An excerpt:
(§1) Mice homozygous for the Col4a3 ko/ko targeted mutation are a model for autosomal-recessive Alport syndrome (Cosgrove et al. Kidney Int. 2007, 71(7), p. 615-618). Animals bred on a 129/SvJ background develop glomerulonephritis and die at about 8.5 weeks of age (Jackson Laboratory strain: #002908). Gross et al. Kidney Int. 2003, 63(2), p. 438-446) reported a mean survival of 10 weeks. Since homozygous Col4a3 ko/ko mice reflect key features of Alport syndrome, this mouse model is useful to test potential drug candidates. A number of 40 homozygous Col4a3 ko/ko mice, allocated to 4 groups (vehicle, setanaxib, Ramipril, and setanaxib+Ramipril combination) with n=10 animals each, were used for the study. Starting at an age of 4 weeks, animals were treated with vehicle and/or compound daily per oral gavage for 4 weeks. The reference compound Ramipril was administered via drinking water, prepared on a weekly basis, but changed at the latest after 4 days. Additionally, one wild-type control group (Col4A3+/+) without any treatment was enclosed in the study with n=6 animals. At study end the animals were euthanized by i.p. injection of pentobarbital and terminal blood was collected by heart puncture in EDTA coated tubes. […] BUN plasma levels of all animals at the end of the study were analyzed. […]

Assay [4] deals with homozygous Col4a3 ko/ko mice. As to the kind of experiment: Quantitative detection of mouse Cystatin C in plasma (ELISA), Col4a3 Alport mouse model. Particulars: end of study (4 weeks of treatment); first experiment.
Description: as §1, with “Cystatin C” for “BUN”

Where [5] appears, read: age 8 weeks (4 weeks of treatment), setanaxib 60 mg/kg.

Turning to `CCOC(=O)[C@H](CCc1ccccc1)N[C@@H](C)C(=O)N1[C@H](C(=O)O)C[C@@H]2CCC[C@@H]21` [Ramipril, (2S,3aS,6aS)-1-[(2S)-2-[[(2S)-1-ethoxy-1-oxo-4-phenylbutan-2-yl]amino]propanoyl]-3,3a, 4,5,6,6a-hexahydro-2H-cyclopenta[b]pyrrole-2-carboxylic acid], the “Albumin levels in urine vs vehicle” value in assay [1] (first experiment) is “slightly reduced the amount of albumin in the urine”; in assay [1] (second experiment), “reduced to a greater extent”. The “Albumin to Creatinine ratio in urine vs vehicle” value is “reduced the Albumin to Creatinine ratio, but without reaching significance” in assay [2] (age 6 weeks, first experiment, setanaxib 60 mg/kg); “the reduction did reach significance” in assay [2] (age 6 weeks, second experiment); “significantly decreased” in assay [2] (setting [5]). Further, in assay [3], the “BUN plasma levels vs vehicle” value was “significant decrease”. Also, the “Cystatin C plasma levels vs vehicle” value in assay [4] is given as “significant decrease”.

Take `CN(C)c1cccc(-c2c3c(=O)n(-c4ccccc4Cl)[nH]c3cc(=O)n2C)c1` [setanaxib, 2-(2-chlorophenyl)-4-[3-(dimethylamino)phenyl]-5-methyl-1H-pyrazolo[4,3-c]pyridine-3,6(2H,5H)-dione]: in assay [1] (both experiments / experiment not specified), the “Albumin levels in urine vs vehicle” value is “trend towards increased Albumin levels”. Also, in assay [1] (age 8 weeks (4 weeks of treatment)), the “Albumin levels in urine vs control (vehicle)” value is listed as “decrease in average Albumin levels”. Moreover, the “Albumin to Creatinine ratio in urine vs vehicle” value is “trend in both the first and second experiment towards an increase” in assay [2] (age 6 weeks, both first and second experiment, setanaxib 60 mg/kg); “average decrease” in assay [2] (setting [5]). For the same compound, in assay [3], the “BUN plasma levels vs vehicle” value is listed as “significant decrease”. Further, the “Cystatin C plasma levels vs vehicle” value in assay [4] is given as “significant decrease”.
